The values below come from patent publication US11633379B2, “Methods of inhibiting PCSK9” (TRUSTEES OF DARTMOUTH COLLEGE, priority 2017, dated 2023).

One data set deals with recombinant PCSK9 (Homo sapiens, UniProt Q8NBP7). In words: PCSK9 detection interference (ELISA). The following applies: FIG. 5A. As for the experimental part:
To study whether 34 directly interfere with PCSK9 detection we used recombinant PCSK9 (30 ng/ml) was mixed with increasing concentration (0.2-50 μM) of 34 in 0.1% DMSO followed by detection of PCSK9 using commercially available ELISA kit (MBL-international, catalog # CY-8079) following the manufacturer instruction.
Background: ELISA stands for enzyme-linked immunosorbent assay.

For the next data set, the system named is apoE mRNA. In words: apoE transcription, HepG2 (real-time PCR). The class given is cell-based, human. The following applies: HepG2, FIG. 7B. An excerpt:
, cells were washed with HBSS followed by RNA extraction kit (RNeasy, QIAGEN cat #74-104). mRNA was reversed transcribed to cDNA using commercially available kit (ThermoFisher, cat #4368814) and analyzed using real-time PCR for apoE transcript levels using the relative expression method known as delta-delta CT.
In general terms: Real-time PCR tracks product formation cycle by cycle.

Data set [1] deals with albumin. The experiment in a line: Albumin secretion, HepG2 (ELISA). The data set is classed as cell-based, human. As for the experimental part:
The collected media was analyzed for albumin levels using commercially available ELISA kit (ABCAM, catalog #108788) following the manufacturer instruction.

For data set [2], the system named is PCSK9. In words: Plasma PCSK9 levels in mice (ELISA). The class given is in vivo. The method, then:
1) Single-dose experiments: mice were administered (oral gavage or intra-peritoneal injection) with 200 μl of 34 (30 mg/kg or 100 mg/kg) in 0.1% Tween 80+1% hydroxyethyl cellulose (HEC) in buffered (PBS pH7.4) solution. After 34 administration, 50-70 μl of blood was collected from the retro-orbital plexus every 4-6 hours (for a total of 24 hours). Blood was left to clot at room temperature for 20 min, followed by serum separation (spin at 1000 g for 10 min). Serum was analyzed as specified in the “Serum analyses” section.
2) Daily dosage experiments: mice were administered daily oral gavage with 200 μl of 34 (100 mg/kg) in 0.1% Tween80+1% hydroxyethyl cellulose (HEC) in buffered (PBS pH7.4) solution. 50-70 μl of blood was collected from the retro-orbital plexus on day 3 and day 5 after 34 administration, on day 5 mice were euthanized and liver were collected and analyzed as mentioned below under the “Liver analyses” section. Blood was left to clot at room temperature for 20 min, followed by serum separation (spin at 1000 g for 10 min). Serum was analyzed as described below:
PCSK9 levels—using commercially available ELISA kit (MBL-international, catalog # CY-8079) following the manufacturer instruction.

For data set [3], the system named is albumin. In words: Intracellular albumin, HepG2 (ELISA). The class given is cell-based, human. The method, then: After 24 hours media was aspirated, cells were washed with HBSS followed by protein extraction using commercially available RIPA buffer (SIGMA-ALDRICH, catalog #20-188). Protein extracts (5 μgr) were used for albumin detection using commercially available ELISA kit (ABCAM, catalog #108788) following the manufacturer instruction.

Data set [4] addresses T1, PCSK9 binding to LDLR (EGF-A domain) (Homo sapiens, UniProt Q8NBP7).
T1 construct: purchased MBL-international CY-8150
The experiment in a line: PCSK9-LDLR interaction ELISA. The following applies: FIG. 5B. The method, then:
To study whether increasing concentrations of 34 (0.2-50 μM) directly interfere with PCSK9-LDLR interaction we used a commercially available ELISA kit (MBL-international, catalog # CY-8150) following the manufacturer instruction.

The test system of the next data set is apoE. In words: Intracellular apoE, HepG2 (western blot). The data set is classed as cell-based, human. The settings on record: 40 hours of incubation, HepG2, FIG. 7C. From the text: […] […] Protein extracts (25 μgr) were used for immunodetection of intracellular […] (western blot analysis) with a commercially available primary antibody against apoE (ABCAM, catalog #1906), HRP-conjugated secondary antibody (SIGMA-ALDRIC, catalog # A5420) visualized using an enhanced chemiluminescence (ECL) solution (Cumaric acid, Luminol and hydrogen peroxide), developed in a LiCore imager.
(A western blot detects proteins with antibodies after separation by electrophoresis.)

The next data set deals with PCSK9 mRNA. In words: PCSK9 transcription in HepG2 cells (real-time PCR). The data set is classed as cell-based, human. The settings on record: FIG. 1B. The method, then: To study whether 34 affect PCSK9 mRNA levels we used 1×10^6 HepG2 cells in 6-well culture plates, followed by incubation with media+0.1% DMSO or increasing concentration (0.2-50 μM) of 34 in 0.1% DMSO for 24 hours. After 24 hours media was aspirated, cells were washed with HBSS followed by RNA extraction kit (RNeasy, QIAGEN cat #74-104). mRNA was reversed transcribed to cDNA using commercially available kit (ThermoFisher, cat #4368814) and analyzed using real-time PCR for PCSK9 transcript levels using the relative expression method known as delta-delta CT.

In data set [5] the test system is PCSK9. The experiment in a line: Intracellular PCSK9 protein in HepG2 cells (western blot). The following applies: FIG. 1A. The class given is cell-based, human. The method, then: To study whether 34 affect intracellular PCSK9 levels we used 1×10^6 HepG2 cells in 6-well culture plates, followed by incubation with media+0.1% DMSO or increasing concentration (0.2-50 uM) of 34 in 0.1% DMSO for 24 hours. After 24 hours media was aspirated, cells were washed with HBSS followed by protein extraction using commercially available RIPA buffer (SIGMA-ALDRICH, catalog #20-188). Protein extracts (20 μg) were used for immunodetection of intracellular PCSK9 (western blot analysis) with a commercially available primary antibody against PCSK9 (MBL-international, catalog # CY-1037), HRP-conjugated secondary antibody (SIGMA-ALDRICH, catalog #12-348) visualized using an enhanced chemiluminescence (ECL) solution (Cumaric acid, Luminol and hydrogen peroxide), developed in a LiCore imager.

The subject of the next data set is HepG2 cells. In words: Cell survival, MTT assay. The class given is cell-based, human. The method, then: To study the effect of the compound on cell viability we used 1.25×10^5 HepG2 cells in 96-well culture plates, followed by incubation with media only, media+0.1% DMSO or Media+5 uM of 31/33/34/35 in 0.1% DMSO or with increasing concentration (0.2-50 μM) of 34 in 0.1% DMSO for 40 hours followed by a viability assay knows as MTT. The MTT assay is a colorimetric assay for assessing cell metabolic activity. NAD(P)H-dependent cellular oxidoreductase enzymes may, reflects the number of viable cells present. These enzymes are capable of reducing the tetrazolium dye MTT 3-(4,5-dimethylthiazol-2-yl)-2,5-diphenyltetrazolium bromide to its insoluble formazan, which has a purple color. Tetrazolium dye assays (commonalty known as the MTT assay) is used to measure cytotoxicity (loss of viable cells).

[6] abbreviates: 20 μM and 50 μM, HepG2, result of increased cell death.

T1 sequence (Q8NBP7 153-692): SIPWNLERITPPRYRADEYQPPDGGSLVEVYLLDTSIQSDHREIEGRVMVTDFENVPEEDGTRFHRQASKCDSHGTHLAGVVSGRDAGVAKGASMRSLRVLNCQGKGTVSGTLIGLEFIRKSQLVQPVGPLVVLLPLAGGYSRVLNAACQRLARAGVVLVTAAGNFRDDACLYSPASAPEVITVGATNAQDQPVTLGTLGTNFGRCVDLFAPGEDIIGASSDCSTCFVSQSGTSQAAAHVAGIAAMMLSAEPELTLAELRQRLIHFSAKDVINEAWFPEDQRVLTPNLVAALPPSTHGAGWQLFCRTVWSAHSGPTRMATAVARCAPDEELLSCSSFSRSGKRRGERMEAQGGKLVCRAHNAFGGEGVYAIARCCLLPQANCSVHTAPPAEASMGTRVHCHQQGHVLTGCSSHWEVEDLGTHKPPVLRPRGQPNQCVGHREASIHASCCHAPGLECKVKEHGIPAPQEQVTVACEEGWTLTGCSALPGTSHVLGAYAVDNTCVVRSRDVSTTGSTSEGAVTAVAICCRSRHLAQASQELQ
T1 sequence (Q8NBP7 31-152 partner limits assumed): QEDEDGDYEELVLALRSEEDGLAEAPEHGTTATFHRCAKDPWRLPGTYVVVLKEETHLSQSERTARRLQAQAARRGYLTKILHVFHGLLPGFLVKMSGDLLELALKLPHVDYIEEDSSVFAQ
Chain of recombinant PCSK9 (Q8NBP7 153-692): as the sequence (Q8NBP7 153-692) above

As for `CC(=O)Oc1ccc(C2CC3(CCCCC3)c3c2[nH]c2ccccc32)cc1` (stereo not drawn) [Compound 34], the “interference with PCSK9 detection” value on recombinant PCSK9 is on record as “does not interfere with PCSK9 detection”. For the same compound, the “apoE mRNA levels” value in the data set with apoE mRNA is recorded as “no changes in secreted, intracellular, or mRNA levels of apoE”. Also, the secreted albumin result in the data set with albumin [1] (setting [6]) was “Reduction in secreted and intracellular albumin”; in the data set with albumin [1] (up to 10 μM, 40 hours of incubation, HepG2, FIG. 6A) it was “no changes in secreted or intracellular albumin”. In the data set on PCSK9 [2] (5-day oral 100 mg/kg/day, FIG. 12B), the “individual mice with a drop in PCSK9 levels” value is listed as “all mice receiving compound 34 presented with a drop in PCSK9 levels”. The “drop in plasma PCSK9” value in the data set with PCSK9 [2] (5-day oral 100 mg/kg/day, day 5, FIG. 12A) was determined as 36.2%. Further, the “maximal drop in plasma PCSK9” value is reported as 43.2% with PCSK9 [2] (single 30 mg/kg intraperitoneal (IP) injection, 4 hours after administration, FIG. 9); 22.5% in the data set on PCSK9 [2] (single 30 mg/kg oral gavage, 4 hours after administration, FIG. 9); 28.5% in the data set with PCSK9 [2] (single oral 30 mg/kg, 6 hours after administration, FIG. 10A); 33.4% in the data set on PCSK9 [2] (single oral 100 mg/kg, 6 hours after administration, FIG. 10B). In addition, the “time after administration at which PCSK9 levels are back to baseline” value worked out at 20 h with PCSK9 [2] (single 30 mg/kg, IP or oral, FIG. 9); 18 h in the data set with PCSK9 [2] (single oral 30 mg/kg, FIG. 10A); 24 h with PCSK9 [2] (single oral 100 mg/kg, FIG. 10B). Further, the intracellular albumin entry with albumin [3] (setting [6]) was “Reduction in secreted and intracellular albumin”; in the data set with albumin [3] (up to 10 μM, 40 hours of incubation, HepG2, FIG. 6B), “no changes in secreted or intracellular albumin”. For the same compound, the “PCSK9 binding to LDLR (EGF-A domain)” value in [4] was “does not affect PCSK9 binding to LDLR (EGF-A domain)”. The “intracellular apoE levels” value in the data set with apoE is listed as “no changes in secreted, intracellular, or mRNA levels of apoE”. In the data set on PCSK9 mRNA, the “PCSK9 mRNA levels” value is reported as “reduces levels of PCSK9 mRNA in a dose-dependent manner”. Also, the “intracellular PCSK9, pro-protein and mature forms” value in the data set on PCSK9 [5] was “reduces levels of both the pro-protein and the mature forms of PCSK9 in a dose-dependent manner”. For the same compound, in the data set with HepG2 cells (20 μM and 50 μM, HepG2, FIG. 4B), the cell death result is reported as “increased cell death”. Besides, the “HepG2 cell survival (MTT)” value with HepG2 cells (concentrations up to 5 μM, FIGS. 4A-4B) is “does not affect HepG2 cell survival at concentrations up to 5 μM”.
